Assay results reported in article PMC3389674, “Comparison of Soluble Guanylate Cyclase Stimulators and Activators in Models of Cardiovascular Disease Associated with Oxidative Stress” (Frontiers in Pharmacology, 2012).

What was measured:
[1] = target: T1, sGC (Rattus norvegicus, UniProt P20595); assay: P-VASP formation in rat aortic smooth muscle cells; type: cell-based
T1 construct: in rat aortic smooth muscle cells; endogenous in cells; host or cells: primary rat aortic smooth muscle cells
T1 sequence (P20595 1-619): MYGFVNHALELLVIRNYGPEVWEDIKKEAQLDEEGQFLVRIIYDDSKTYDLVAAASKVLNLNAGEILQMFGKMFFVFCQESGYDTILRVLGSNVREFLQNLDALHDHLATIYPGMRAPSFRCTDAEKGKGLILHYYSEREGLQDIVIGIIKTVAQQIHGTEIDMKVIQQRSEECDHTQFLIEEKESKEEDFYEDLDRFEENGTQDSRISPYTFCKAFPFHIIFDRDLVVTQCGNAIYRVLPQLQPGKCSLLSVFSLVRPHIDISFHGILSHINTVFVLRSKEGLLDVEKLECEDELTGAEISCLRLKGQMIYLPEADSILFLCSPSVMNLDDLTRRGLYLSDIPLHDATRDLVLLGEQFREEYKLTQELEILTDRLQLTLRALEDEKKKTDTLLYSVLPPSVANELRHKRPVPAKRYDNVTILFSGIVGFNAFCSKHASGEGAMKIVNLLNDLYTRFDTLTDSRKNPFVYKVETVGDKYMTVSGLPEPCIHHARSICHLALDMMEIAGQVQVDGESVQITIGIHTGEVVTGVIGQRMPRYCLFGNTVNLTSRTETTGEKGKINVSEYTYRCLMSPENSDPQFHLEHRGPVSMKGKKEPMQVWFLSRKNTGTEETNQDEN
T1 sequence (P19686 1-690 partner): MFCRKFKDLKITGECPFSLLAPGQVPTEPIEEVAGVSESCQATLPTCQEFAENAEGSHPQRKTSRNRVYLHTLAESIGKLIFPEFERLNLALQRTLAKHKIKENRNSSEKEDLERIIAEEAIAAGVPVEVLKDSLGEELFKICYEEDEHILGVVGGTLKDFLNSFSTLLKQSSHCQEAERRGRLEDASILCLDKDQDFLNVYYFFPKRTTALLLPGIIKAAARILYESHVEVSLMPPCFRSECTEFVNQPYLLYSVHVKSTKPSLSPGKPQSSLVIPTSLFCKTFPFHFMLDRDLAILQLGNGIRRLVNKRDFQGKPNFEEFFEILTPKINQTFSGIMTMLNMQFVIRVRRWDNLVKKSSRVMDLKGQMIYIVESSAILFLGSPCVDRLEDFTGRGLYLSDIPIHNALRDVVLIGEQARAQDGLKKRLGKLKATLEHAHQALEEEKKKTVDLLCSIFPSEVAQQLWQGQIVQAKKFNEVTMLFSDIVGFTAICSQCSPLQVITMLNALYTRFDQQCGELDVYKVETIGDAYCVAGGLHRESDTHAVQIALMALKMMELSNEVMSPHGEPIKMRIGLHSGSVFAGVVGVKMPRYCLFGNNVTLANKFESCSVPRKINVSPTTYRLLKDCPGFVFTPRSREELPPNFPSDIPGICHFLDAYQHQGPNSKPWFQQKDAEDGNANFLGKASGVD
Procedure: The potency, efficacy, and mechanism of action of the sGC modulators GSK2181236A and BAY 60-4552 were assessed by measuring phosphorylation of the protein kinase G (PKG) substrate […] (VASP) in rat aortic smooth muscle cells. […] Dimethylsulfoxide (DMSO) vehicle or varying concentrations of GSK2181236A (2 pM to 1 μM) or BAY 60-4552 (15 nM to 100 μM) were then added. Following a 30 min incubation at 37°C, media was aspirated and the cells were rinsed with phosphate-buffered saline (PBS) and fixed with 4% formaldehyde in PBS by incubating at room temperature for 20 min. Cells were then washed with PBS and permeabilized for 10 min using 0.1% triton X-100 in PBS. Following PBS rinsing, the cells were blocked for 90 min at room temperature with Odyssey Blocking Buffer (LI-COR, Cambridge, UK). The buffer was aspirated and the cells were treated overnight at 4°C with primary antibody [(pSer^239) VASP, rabbit polyclonal Ab, Cell Signaling Technology, Danvers, MA, USA] diluted 1:500 in Odyssey Blocking Buffer. Following three washes with 0.05% Tween 20, the cells were treated for 1 h at room temperature with secondary antibody (IRDye® 800CW Donkey Anti-Rabbit IgG, LI-COR) diluted 1:2500 in Odyssey Blocking Buffer with 0.05% Tween 20. Following two washes with PBS, infrared fluorescence was measured using an Odyssey Infrared Imaging System (LI-COR).

[2] = system: SHR-SP cardiac tissue; assay: cardiac gene expression in HSFD SHR-SP after chronic treatment; type: in vivo, rat
Procedure: On week 8, isoflurane anesthetized rats were euthanized via exsanguination. The thoracic aorta was excised for assessment of endothelial function as described below. Hearts were snap-frozen in liquid nitrogen and stored at −80°C for later analysis of gene expression changes associated with cardiac hypertrophy and fibrosis (see below for procedure details).
Cardiac gene expression was analyzed following chronic (7 week) BAY 60-4552 or GSK2181236A treatment in HSFD SHR-SP. Hearts were homogenized in Trizol and RNA was extracted using the RNeasy Plus Mini kit protocol (Qiagen, Valencia, CA, USA) with a 40 μL elution volume. RNA was quantified using a Nanodrop Spectrophotometer ND-1000 (Thermo Fisher Scientific, Wilmington, DE, USA) and converted to cDNA using the High Capacity cDNA Reverse Transcription Kit (Applied Biosystems, Carlsbad, CA, USA). Taqman assays were performed using a 384-well plate format with individual primer-probes and Taqman Universal PCR Master Mix (Applied Biosystems) and run on the 7900 HT Fast Real-Time PCR System (Applied Biosystems). SDS 2.3 software (Applied Biosystems) was used to obtain raw Ct values with manual threshold set at 0.10. Array Studio software (version 3.6.2; OmicSoft Corporation, Cary, NC, USA) was used to normalize gene expression data, by analysis of covariance, to the housekeeper genes β-2-microglobulin (B2m) and peptidyl-prolyl cis-trans isomerase A (Ppia). No outliers were detected by means of principal component analysis.
The following genes were analyzed: α-skeletal actin (Acta1), type 1 collagen-alpha 1 (Col1a1), type 3 collagen-alpha 1 (Col3a1), connective tissue growth factor (CTGF; Ctgf), matrix metalloproteinase 2 (MMP2; Mmp2), matrix metalloproteinase 9 (MMP9; Mmp9), α-myosin heavy chain (α-MHC; Myh6), β-myosin heavy chain (β-MHC; Myh7); atrial natriuretic factor (ANF; Nppa), brain-type natriuretic peptide (BNP; Nppb), cGMP-specific phosphodiesterase 5A (PDE5A; Pde5a), type 2 cGMP-dependent protein kinase (PKG2; Prkg2), and transforming growth factor beta 1 (TGF-β1; Tgfb1).

| SMILES | EC50 ([1]; Control (no ODQ)) [nM] | Emax, P-VASP formation ([1]; Control (no ODQ)) [% DMSO] | leftward-shift of P-VASP concentration-response curve by ODQ ([1]; ODQ 10 μM vs control) [fold] | Emax ([1]; ODQ 10 μM vs control, read-out: augmentation of P-VASP maximal response by ODQ) [%] | EC50 ([1]; ODQ (10 μM) pre-treatment) [nM] | Emax, P-VASP formation ([1]; ODQ (10 μM) pre-treatment) [% DMSO] | attenuation of HSFD-induced increase of ANF expression ([2]; 1.0 mg/kg/day, 7 weeks) [fold] | attenuation of HSFD-induced increase of α-skeletal actin expression ([2]; 1.0 mg/kg/day, 7 weeks) [fold] | rightward-shift of P-VASP concentration-response curve by ODQ ([1]; ODQ 10 μM vs control) [fold] | suppression of P-VASP maximal response by ODQ (trend) ([1]; ODQ 10 μM vs control) [%] | attenuation of HSFD-induced increase of α-skeletal actin expression ([2]; 0.3 mg/kg/day, 7 weeks) [fold] | attenuation of HSFD-induced increase of α-skeletal actin expression ([2]; 3.0 mg/kg/day, 7 weeks) [fold] | attenuation of HSFD-induced increase of ANF expression ([2]; 0.3 and 3.0 mg/kg/day, P > 0.05 vs. HSFD) |
| --- | --- | --- | --- | --- | --- | --- | --- | --- | --- | --- | --- | --- | --- |
| Cc1cc(-c2ccc(OC(F)(F)F)cc2)ccc1COc1ccccc1-c1cccc(-n2ncc(C(=O)O)c2C(F)(F)F)n1 [GSK2181236A, 1-(6-{2-[({3-methyl-4′-[(trifluoromethyl)oxy]-4-biphenylyl}methyl)oxy]phenyl}-2-pyridinyl)-5-(trifluoromethyl)-1H-pyrazole-4-carboxylic acid] | 12.7 ± 4.7 | 379 ± 26 | 4.7 | 32 | 2.7 ± 0.6 | 502 ± 26 | 1.4 | 1.7 |  |  |  |  |  |
| COC(=O)Nc1c(N)nc(-c2nn(Cc3ccccc3F)c3ncccc23)nc1N [BAY 60-4552] | 353 ± 89 | 388 ± 39 |  |  | 3260 | 362 ± 24 |  |  | 9.8 | 7 | 1.3 | 1.4 | non-significant trend |
